Test results taken from US20110071108A1, “Beta-Cyclodextrin Derivatives as Antibacterial Agents” (Pinnacle Pharmaceuticals, Inc., priority 2005, published 2011).

Experiments:
Enterococcus faecium = assay: Bacterial panel testing, MIC by broth microdilution; assay type: cell-based; details: 20-24 hours growth
Method in brief: (§1)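 Strains grown 2-4 h at 37 °C in Mueller-Hinton or Brain Heart infusion broth, standardized to McFarland density and diluted. Compound (10 μg/ml in DMSO) serially two-fold diluted across plate in inoculated media; rifampicin control. Growth 20-24 h, clear wells scored for MIC.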

Eschericia coli = assay: as above; assay type: cell-based; details: 20-24 hours growth
Method in brief: as §1

Pseudomonas aeruginosa = assay: as above; assay type: cell-based; details: 20-24 hours growth
Method in brief: as §1

Salmonella choleraesuis = assay: as above; assay type: cell-based; details: 20-24 hours growth
Method in brief: as §1

Staphylococcus aureus = assay: as above; assay type: cell-based; details: 20-24 hours growth
Method in brief: as §1

[1] = system: P. aeruginosa (susceptible clinical isolate); assay: Potentiation of clinically used antibiotics, susceptible clinical isolate; assay type: cell-based, Pseudomonas aeruginosa; details: Table 3; antibiotic alone or mixed with PP compound
Description: (§2) One to three colonies of bacteria were picked from an Mueller-Hinton or Brain Heart infusion agar plate (depending on the bacterial strain) and transferred to 3 ml Mueller-Hinton broth or Brain Heart infusion media (depending on the bacterial strain). Bacteria were allowed to grow for 2-4 hours in an incubator at 37° C. Bacteria-inoculated media were dispersed in 0.9% saline to match McFarland standard density. 100 μl standardized inoculation was added to 20 ml media (dilution 1). 10 μl of the new dilution was added to 990 μl media and mixed (dilution 2). 10 μl of dilution 2 was spread on an agar plate and allowed to grow overnight. Colonies were then […].
(§3) Test compound was diluted to 10 μg/ml in dimethylsulfoxide. Four μl of Rifampicin antibiotic was loaded into row H, column 2.
(§4) All wells were then filled with 100 μl of inoculated media (dilution 1 from Example 1). A further 100 μl of the inoculated media was then added to column 2 and the contents are pipetted to thoroughly mix the contents. A full 100 μl was then transferred from column 2 and mixed into column 3. This process was continued from left to right until columns 2-12 were serially diluted, and the final draw from column 12 was discarded. The plates were covered with 3M sealing tape (plates containing Enterococcus faecium were sealed with Air Pore sealing tape) and allowed to grow for 20-24 hours. Cytotoxic wells (clear wells) are then scored and the potency of the compound was determined.
Numerous pathogenic bacteria have developed a resistance to many clinically used antibiotics. Following the protocols described herein, various compounds were mixed with clinically used antibiotics to treat Pseudomonas aeruginosa (P. aeruginosa).

[2] = system: Pseudomonas aeruginosa clinical isolate, multi-drug resistant; assay: Potentiation of clinically used antibiotics, multi-drug resistant clinical isolate; assay type: cell-based; details: Table 4, antibiotic alone or mixed with PP compound
Description: as §2, §3
as §4, with “The plates were covered with 3M sealing tape (plates containing Enterococcus faecium were sealed with Air Pore sealing tape) and allowed to grow for 20-24 hours.” left out, “determined. […]” for “determined.”

Compound | MIC EF (Enterococcus faecium) [µg/mL] | MIC EC (Eschericia coli) [µg/mL] | MIC PA (Pseudomonas aeruginosa) [µg/mL] | MIC SC (Salmonella choleraesuis) [µg/mL] | MIC SA (Staphylococcus aureus) [µg/mL] | Mammalian Cytotoxicity IC50 (Lungs cancer cells A549) [µg/mL] | Activity of known antibiotics alone or in combination with compounds of the invention, P. aeruginosa (susceptible clinical isolate) [1] | MIC [2] [µg/mL]
Cl.Cl.Cl.Cl.Cl.Cl.Cl.NCCSC[C@H]1O[C@@H]2O[C@H]3[C@H](O)[C@@H](O)[C@@H](O[C@H]4[C@H](O)[C@@H](O)[C@@H](O[C@H]5[C@H](O)[C@@H](O)[C@@H](O[C@H]6[C@H](O)[C@@H](O)[C@@H](O[C@H]7[C@H](O)[C@@H](O)[C@@H](O[C@H]8[C@H](O)[C@@H](O)[C@@H](O[C@H]1[C@H](O)[C@H]2O)O[C@@H]8CSCCN)O[C@@H]7CSCCN)O[C@@H]6CSCCN)O[C@@H]5CSCCN)O[C@@H]4CSCCN)O[C@@H]3CSCCN | >200 | >200 | >200 | >200 | >200 | 829 |  | 
Cl.Cl.Cl.Cl.Cl.Cl.Cl.NCCCSC[C@H]1O[C@@H]2O[C@H]3[C@H](O)[C@@H](O)[C@@H](O[C@H]4[C@H](O)[C@@H](O)[C@@H](O[C@H]5[C@H](O)[C@@H](O)[C@@H](O[C@H]6[C@H](O)[C@@H](O)[C@@H](O[C@H]7[C@H](O)[C@@H](O)[C@@H](O[C@H]8[C@H](O)[C@@H](O)[C@@H](O[C@H]1[C@H](O)[C@H]2O)O[C@@H]8CSCCCN)O[C@@H]7CSCCCN)O[C@@H]6CSCCCN)O[C@@H]5CSCCCN)O[C@@H]4CSCCCN)O[C@@H]3CSCCCN | >200 |  | >200 | >200 | >200 | 191 |  | 
Cl.Cl.Cl.Cl.Cl.Cl.Cl.NCCCCSC[C@H]1O[C@@H]2O[C@H]3[C@H](O)[C@@H](O)[C@@H](O[C@H]4[C@H](O)[C@@H](O)[C@@H](O[C@H]5[C@H](O)[C@@H](O)[C@@H](O[C@H]6[C@H](O)[C@@H](O)[C@@H](O[C@H]7[C@H](O)[C@@H](O)[C@@H](O[C@H]8[C@H](O)[C@@H](O)[C@@H](O[C@H]1[C@H](O)[C@H]2O)O[C@@H]8CSCCCCN)O[C@@H]7CSCCCCN)O[C@@H]6CSCCCCN)O[C@@H]5CSCCCCN)O[C@@H]4CSCCCCN)O[C@@H]3CSCCCCN | >200 | >200 | >200 | >200 | >200 | 198 |  | 
O=C(NCC1OC2OC3C(CNC(=O)C4CCCN4)OC(OC4C(CNC(=O)C5CCCN5)OC(OC5C(CNC(=O)C6CCCN6)OC(OC6C(CNC(=O)C7CCCN7)OC(OC7C(CNC(=O)C8CCCN8)OC(OC8C(CNC(=O)C9CCCN9)OC(OC1C(O)C2O)C(O)C8O)C(O)C7O)C(O)C6O)C(O)C5O)C(O)C4O)C(O)C3O)C1CCCN1.O=C(O)C(F)(F)F.O=C(O)C(F)(F)F.O=C(O)C(F)(F)F.O=C(O)C(F)(F)F.O=C(O)C(F)(F)F.O=C(O)C(F)(F)F.O=C(O)C(F)(F)F (centres unmarked) | >200 | >200 | >200 | >200 | >200 | 524 |  | 
Cl.Cl.Cl.Cl.Cl.Cl.Cl.Cl.Cl.Cl.Cl.Cl.Cl.Cl.NCCCC[C@@H](N)C(=O)NC[C@H]1O[C@@H]2O[C@H]3[C@H](O)[C@@H](O)[C@@H](O[C@H]4[C@H](O)[C@@H](O)[C@@H](O[C@H]5[C@H](O)[C@@H](O)[C@@H](O[C@H]6[C@H](O)[C@@H](O)[C@@H](O[C@H]7[C@H](O)[C@@H](O)[C@@H](O[C@H]8[C@H](O)[C@@H](O)[C@@H](O[C@H]1[C@H](O)[C@H]2O)O[C@@H]8CNC(=O)[C@H](N)CCCCN)O[C@@H]7CNC(=O)[C@H](N)CCCCN)O[C@@H]6CNC(=O)[C@H](N)CCCCN)O[C@@H]5CNC(=O)[C@H](N)CCCCN)O[C@@H]4CNC(=O)[C@H](N)CCCCN)O[C@@H]3CNC(=O)[C@H](N)CCCCN | >200 | >200 | >200 | >200 | >200 | 2990 |  | 
I.I.I.I.I.I.I.N=C(N)SCC1OC2OC3C(CSC(=N)N)OC(OC4C(CSC(=N)N)OC(OC5C(CSC(=N)N)OC(OC6C(CSC(=N)N)OC(OC7C(CSC(=N)N)OC(OC8C(CSC(=N)N)OC(OC1C(O)C2O)C(O)C8O)C(O)C7O)C(O)C6O)C(O)C5O)C(O)C4O)C(O)C3O (centres unmarked) | >200 | >200 | >200 | >200 | >200 | 480 |  | 
Cl.Cl.Cl.Cl.Cl.Cl.Cl.Cl.Cl.Cl.Cl.Cl.Cl.Cl.NCCCC(N)C(=O)NCC1OC2OC3C(CNC(=O)C(N)CCCN)OC(OC4C(CNC(=O)C(N)CCCN)OC(OC5C(CNC(=O)C(N)CCCN)OC(OC6C(CNC(=O)C(N)CCCN)OC(OC7C(CNC(=O)C(N)CCCN)OC(OC8C(CNC(=O)C(N)CCCN)OC(OC1C(O)C2O)C(O)C8O)C(O)C7O)C(O)C6O)C(O)C5O)C(O)C4O)C(O)C3O (centres unmarked) | >200 | >200 |  | >200 | >200 | 860 |  | 
Cl.Cl.Cl.Cl.Cl.Cl.NCCCCSCC1OC2OC3C(CSCCCCN)OC(OC4C(CSCCCCN)OC(OC5C(CSCCCCN)OC(OC6C(CSCCCCN)OC(OC7C(CSCCCCN)OC(OC1C(O)C2O)C(O)C7O)C(O)C6O)C(O)C5O)C(O)C4O)C(O)C3O (centres unmarked) | >200 | >200 | >200 | >200 | >200 | 589 |  | 
COc1cccc(OC)c1C(=O)N[C@@H]1C(=O)N2[C@@H]1SC(C)(C)[C@@H]2C(=O)O [Methicillin] |  |  |  |  |  |  | >100 | 
CCn1cc(C(=O)O)c(=O)c2cc(F)c(N3CCNCC3)cc21 [Norfloxacin] |  |  |  |  |  |  |  | > 100
CC1(C)S[C@@H]2[C@H](NC(=O)COc3ccccc3)C(=O)N2[C@H]1C(=O)O [Penicillin V] |  |  |  |  |  |  | >100 | 
CN[C@H](CC(C)C)C(=O)N[C@H]1C(=O)N[C@@H](CC(N)=O)C(=O)N[C@H]2C(=O)N[C@H]3C(=O)N[C@H](C(=O)N[C@H](C(=O)O)c4cc(O)cc(O)c4-c4cc3ccc4O)[C@H](O)c3ccc(c(Cl)c3)Oc3cc2cc(c3O[C@@H]2O[C@H](CO)[C@@H](O)[C@H](O)[C@H]2O[C@H]2C[C@](C)(N)[C@H](O)[C@H](C)O2)Oc2ccc(cc2Cl)[C@H]1O [Vancomycin] |  |  |  |  |  |  | >100 | 
